In patent publication EP0621773B1, “FORMULATION AND USE OF CAROTENOIDS IN TREATMENT OF CANCER” (BOARD OF REGENTS THE UNIVERSITY OF TEXAS SYSTEM, priority 1992, dated 1993):

What was measured:
[1] = test system: human red blood cells (RBCs); experiment: In vitro lysis of human erythrocytes (hemoglobin release, optical density at 550 nm); type: cell-based
Description: Lysis of human red blood cells (RBCs) was quantitated by measuring the release of hemoglobin in the supernatants by observation of increases in optical density at 550 nanometers (nm), as described previously (Mehta, et al., Biochem. Biophys, Acta., Vol. 770-, pp 230-234 (1984). Free-RA dissolved in dimethyl formamide (DMFA), was added to the RBCs. Results with appropriate solvent controls, empty liposomes, and empty liposomes plus free-drug were also noted. Release of hemoglobin by hypotonic lysis of the same number of human RBCs by water was taken as a 100% positive control, while cells treated with PBS were taken as negative controls.
Preparations of L-RA comprising various lipids were incubated at a concentration of 20 microgram (µg) RA per ml with RBCs in PBS for 4 hr at 37°C.
A further experiment concerning the toxicity over time of free RA and L-RA (DMPC:DMPG-7:3) toward RBC was conducted. Human erythrocytes were incubated at 37°C in PBS with 10 ug/ml free RA or 120 ug/ml L-RA, and RBC lysis monitored over a period of 5 hr. […] When a similar manipulation was performed with L-RA (DMPC:DMPG(7:3)) at a RA concentration of 120 ug/ml, little RBC lysis occurred (e.g., less than 10% after […]).
A study was also conducted concerning the effects upon RBC lysis in 2 hr of free RA and L-RA (DMPC:DMPG(7:3)) at various concentrations. […]

[2] = in vivo; conditions: mouse, in vivo, iv
Description: (§1) The acute toxicity of free and liposomal all-trans retinoic acid was studied in CD1 mice. Free all-trans retinoic acid was prepared as an emulsion in normal saline containing 10% DMSO and 2% Tween 80 at a concentration of 3 to 5 mg/ml. Liposomal all-trans retinoic acid was prepared using a lipid:drug ratio of 15:1. The final concentration of all-trans retinoic acid in the liposomal preparation was 3 mg/ml. Empty liposomes of the same lipid composition (DMPC:DMPG 7:3) were also tested at doses equivalent to 80 mg/kg, 100 mg/kg, and 120 mg/kg of liposomal-all trans retinoic acid. Normal saline containing 10% DMSO and 2% Tween 80 was also tested as a control at a dose equivalent to 50 mg/kg of free all-trans retinoic acid. All drugs tested were injected intravenously via tail vein as a single bolus. The injected volumes of free and liposomal-all-trans retinoic acid were the same for each dose.

[3] = test system: CD1 mice; experiment: in vivo; conditions: for Number Animals with seizures / Number Animals alive (72 hr): CD1, mouse, in vivo, iv
Description: as §1

[4] = test system: human monocytic cell line THP-1; experiment: Cell growth inhibition, 72 hr, 96 well microtiter plate; type: cell-based; conditions: concentrations of less than 1 µg RA/ml, 72 hr at 37°C
Description: (§2) Cells of the human monocytic cell line THP-1 and of the human histiocytic cell line U-937 were inoculated at about 20,000 cells per well in aliquots of eucaryotic cell culture medium contained in wells of a 96 well microtiter plate. The medium in various wells contained different amount of free RA or L-RA (DMPC:DMPG 7:3). The cells were incubated for 72 hr at 37°C and cell growth determined and compared to that of controls without any form of retinoic acid. […] At concentrations of less than 1 µg RA/ml, both preparations inhibited cell growth by over 90%.

[5] = test system: human histiocytic cell line U-937; experiment: as above; type: cell-based; conditions: retinoic acid concentration of about 10 ug/ml
Description: as §2
Cells of the human histiocytic cell line U-937 were distributed and cultured under the same conditions as the THP-1 cells in the prior experiment. […] It should be noted that the U-937 cells were almost completely growth-inhibited by L-RA at a retinoic acid concentration of about 10 ug/ml while this amount of free RA inhibited growth less than 50%.

[6] = test system: human monocytic leukemia THP-1 cells; experiment: Morphological change associated with cellular differentiation; type: cell-based; conditions: 0.3 µg RA/ml, 72 hr incubation
Description: The generally ovate form was retained when the cells were cultured in the absence of any free or liposomal retinoic acid.

[7] = test system: tissue transglutaminase; experiment: Induction of tissue transglutaminase activity in THP-1 cells (marker for monocytic cell differentiation); type: cell-based, human; conditions: 0.3 µg/ml or 0.6 µg/ml, 24 hr
[8] = test system: M5076; experiment: In vitro sensitivity of M5076 cells to retinoic acid; type: cell-based
[9] = test system: THP-1 cells; experiment: Tumor formation of in vitro treated THP-1 cells injected subcutaneously into mice; type: in vivo; conditions: cells treated in vitro for 72 hours, injected subcutaneously into male mice

CC1=C(/C=C/C(C)=C/C=C/C(C)=C/C(=O)O)C(C)(C)CCC1 [Free RA, all-trans retinoic acid]
RBC lysis over time ([1]; 10 ug/ml, 37°C in PBS, between about 1 hr and about 3 hr): extensively lysed a large majority of the erythrocytes | RBC lysis in 2 hr as a function of concentration ([1]; between about 5 ug RA/ml and about 30 ug RA/ml, 2 hr): linearly increasing RBC lysis | LD50 at 72 h [2]: 32 mg/kg | Number Animals with seizures ([3]; 10 mg/kg): 0/6 | Number Animals alive (72 hr) ([3]; 10 mg/kg): 6/6 | Number Animals with seizures ([3]; 20 mg/kg): 6/6 | Number Animals alive (72 hr) ([3]; 20 mg/kg): 5/6 | Number Animals with seizures ([3]; 30 mg/kg): 6/6 | Number Animals alive (72 hr) ([3]; 30 mg/kg): 4/6 | Number Animals with seizures ([3]; 40 mg/kg): 3/3 | Number Animals alive (72 hr) ([3]; 40 mg/kg): 0/3 | Number Animals with seizures ([3]; 50 mg/kg): 3/3 | Number Animals alive (72 hr) ([3]; 50 mg/kg): 0/3 | maximum non-toxic dose ([3]; i.v. single bolus, CD1 mice): 10 mg/kg | inhibition of THP-1 cell growth [4]: over 90% | inhibition at 10 µg/mL [5]: < 50% | morphological appearance of THP-1 cells [6]: more flattened and spread morphological appearance | tissue transglutaminase enzymic activity [7]: increased levels of tissue transglutaminase enzymic activity | sensitivity of M5076 cell line in in vitro studies [8]: resistant | tumor development of treated THP-1 cells in mice [9]: failed to develop into tumors
